# Laboratory results reported in patent US20160152976A1, “COMPOUND ADMINISTRATION PRECURSOR AND MEDICAMENT CARRIER PREPARATION” (HitGen LTD., priority 2013, published 2016).
# {C12NH2} = amino-(CH2)12 linker attached through a phosphate; {C12NH2-P} = aminododecyl phosphate linker; {FITC} = fluorescein isothiocyanate label
# How the values were obtained:
# HepG2 cells [1] = test: Transmembrane transfer of DNA/RNA fragments and drug-delivery precursors into HepG2 cells, laser confocal microscope; assay type: cell-based; details: 4 nmol, X-tremeGENEsiRNA transfection reagent, 6 h, laser confocal microscope (FIG. 11)
# Method: 24 h before transfer, the HepG2 cells in the phase of logarithmic growth were digested with trypsin; a culture medium containing 10% serum was used for adjusting the cell density to 0.5×10^6 cells/mL; and the cells were inoculated again in a cell culture dish of 15 cm and cultured in a culture incubator containing 5% CO2 at 37° C. The cells may be used for experiments when the cell density reaches 60% to 70% 24 h later.
# 4 nmol of the above-mentioned single-stranded or double-stranded DNA/RNA fragments in different sequences and various drug-delivery precursors was added to a sterile centrifuge tube (tube A) of 15 mL, respectively, and uniformly mixed with Opti-MEM in a corresponding volume, with a total volume of 2 mL; the X-tremeGENEsiRNA reagent was shaken gently, and 160 μL of X-tremeGENEsiRNA reagent was mixed with 1.84 mL of Opti-MEM in another tube (tube B); and the solution in the tube A was mixed with the solution in the tube B, the mixture was slightly triturated by a pipette and incubated for 20 min at room temperature.
# 6 mL of RPMI-1640 serum-free culture medium was added to the mixture and mixed uniformly; the primary culture medium in the HepG2 cell culture dish was discarded, and slightly triturated with RPMI-1640 serum-free culture medium once; and then, the mixture was moved into the HepG2-PT cell culture dish, and cultured in a culture incubator containing 5% CO2 at 37° C.
# HepG2 cells [2] = details: original compound 2 linked to the fluorescent tag (FIG. 8A)
# Method: 24 h before transfer, the HepG2 cells in the phase of logarithmic growth were digested with trypsin; a culture medium containing 10% serum was used for adjusting the cell density to 1.0×10^7cells/20 mL; and the cells were inoculated again in a cell culture dish of 15 cm and cultured in a culture incubator containing 5% CO2 at 37° C. The cells may be used for experiments when the cell density reaches 60% to 70% 24 h later.
# 6 mL of RPMI-1640 serum-free culture medium was added to the mixture and mixed uniformly; the primary culture medium in the HepG2 cell culture dish was discarded, and slightly triturated with. RPMI-1640 serum-free culture medium once; and then, the mixture was moved into the HepG2-PT cell culture dish, and cultured in a culture incubator containing 5% CO2 at 37° C.
Compound,transfer into cells and positioning in the cells (HepG2 cells [1]),entry into cells (HepG2 cells [2])
"5-NH2—(CH2)12—PO4-TGGGCTGGCCAAACTGCTG-3′-FITC (DNA, 5' {C12NH2}, 3' {FITC}, backbone not given here)","may be all transferred into cells by X-tremesiRNA, with most of them into the cytoplasm and a few of them into the cell nucleus",–
5′-NH2—(CH2)2—PO4-A19-3′-FITC [polyA of 19 bp],"may be all transferred into cells by X-tremesiRNA, with most of them into the cytoplasm and a few of them into the cell nucleus",–
5′-NH2—(CH2)12—PO4-A5-3′-FITC [polyA of 5 bp],"may be all transferred into cells by X-tremesiRNA, with most of them into the cytoplasm and a few of them into the cell nucleus",–
5′-NH2—(CH2)12—PO4-A38-3′-FITC [polyA of 38 bp],"may be all transferred into cells by X-tremesiRNA, with most of them into the cytoplasm and a few of them into the cell nucleus",–
"5′-NH2—(CH2)12—PO4TGGGCTGGCCAAACTGCTG-3′-FITC: 5′-CAGCAGTTTGGCCAGCCCA-3′ (chain 1: DNA, 5' {C12NH2-P}, 3' {FITC}, backbone not given here; chain 2: DNA, backbone not given here)","may be all transferred into cells by X-tremesiRNA, with most of them into the cytoplasm and a few of them into the cell nucleus",–
"C#CCN(CC1CCN(C(=O)Nc2ccccc2)CC1)c1cccc(-c2sc(C(=O)O)c(OCC(=O)O)c2Br)c1 [compound 2, 4-bromo-3-oxoacetic acid-5-(3-(((1-phenylcarbamoylpiperidine)-4-methyl)-N-propargylamine)phenyl)thiophene-2-formic acid]",–,can not enter the cells
